# Measurements published in US4595689A, “4-(8-bromodibenz[b,f]oxepin-10-yl)-1,2,3,6-tetrahydro-1-methylpyridine and 4-(2-bromodibenzo[a,d]cyclophetatriene-11-yl)-1,2,3,6-tetrahydro-1-methy lpyridine for dermal inflammation” (Hoffmann-LaRoche Inc., priority 1984, dated 1986).
# Tested on: cantharidin-induced inflammation of rat ear
# Experiment: Cantharidin induced inflammation in the rat (topical activity, ear skin punch weight)
# Assay type: in vivo, rat (Charles River CD, 21-day-old male)
# Settings: topical dose 100 μg, with 400 μg cantharidin in 0.1 ml vehicle on rat ears; 72 hours
# Protocol: CANTHARIDIN INDUCED INFLAMMATION IN THE RAT
# A solvent vehicle was prepared which was used to apply cantharidin or cantharidin and test compound to rats. The solvent vehicle was a solution of 1 part ethanol, 1.5 parts collodion, 2 parts acetone and 3 parts diethylether. When it was desired to apply cantharidin to rats, cantharidin was added to the solvent vehicle in such an amount that there were 400 μg of cantharidin in 0.1 ml of solvent vehicle. When it was desired to apply cantharidin and test compound to rats, cantharidin and test compound were added to the solvent vehicle in such amounts that there were both 400 μg of cantharidin and 100 μg of test compound in 0.1 ml of solvent vehicle. Cantharidin or cantharidin plus the test compound at a dose of 100 μg were applied topically to the outer surface of the ears of Charles River CD 21-day-old male rats in a volume of 0.1 ml of solvent vehicle described above. Separate groups of rats were treated with solvent vehicle alone, cantharidin alone, and cantharidin plus test compound. Autopsy was carried out 72 hours after cantharidin administration. Uniform punches were obtained through the site of application and weighed. Weight changes reflect effects on both the fluid and tissue components of the inflammatory process. […]
row,Structure (SMILES),% Inhibition of Inflammation
1,"CN1CC=C(C2=Cc3ccccc3Cc3ccc(Br)cc32)CC1 [4-(2-bromodibenzo[a,d]cycloheptatriene-11-yl)-1,2,3,6-tetrahydro-1-methylpyridine]",37%
2,"CN1CC=C(C2=Cc3ccccc3Oc3ccc(Br)cc32)CC1 [4-(8-bromodibenz[b,f]oxepin-10-yl)-1,2,3,6-tetrahydro-1-methylpyridine]",36%
